Drawing on PubChem BioAssay AID248 (DTP/NCI, 2004), this text covers T/C for 16 molecules.

Each structure is given as a SMILES string. Values joined by “and” are separate entries in the source; they are usually repeats but may differ in a detail not shown here. Equal entries are not always repeated. Inconclusive results and toxic doses are left out.

This assay has as its system L1210 leukemia ip in BDF1 mice, survival T/C. Kind of assay: NCI In Vivo Anticancer Drug Screen. Data for tumor model L1210 Leukemia (intraperitoneal) in B6D2F1 (BDF1) mice. The note with it: endpoint: mean survival time, higher = longer survival. The essentials:
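Transplanted-tumor mice were given test agent; controls received vehicle only. Survival readings from the two groups were divided (treated over control).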

[1] abbreviates: dose: 100.0 mg/kg/injection, schedule: Q01DX009 (ip), vehicle: saline with Tween-80.
[2] abbreviates: dose: 100.0 mg/kg/injection, schedule: Q04DX003 (ip), vehicle: saline with Tween-80.
[3] abbreviates: dose: 200.0 mg/kg/injection, schedule: Q04DX003 (ip), vehicle: saline with Tween-80.
Where [4] appears, read: dose: 6.25 mg/kg/injection, schedule: Q01DX009 (ip), vehicle: saline.
[5] abbreviates: dose: 12.5 mg/kg/injection, schedule: Q01DX009 (ip), vehicle: saline.
Where [6] appears, read: dose: 25.0 mg/kg/injection, schedule: Q01DX009 (ip), vehicle: saline.
The mark [7] stands for this setting: dose: 100.0 mg/kg/injection, schedule: Q01DX001 (ip), vehicle: carboxymethylcellulose (CMC).
Setting [8] is: dose: 200.0 mg/kg/injection, schedule: Q01DX001 (ip), vehicle: carboxymethylcellulose (CMC).
Where [9] appears, read: dose: 400.0 mg/kg/injection, schedule: Q01DX001 (ip), vehicle: carboxymethylcellulose (CMC).

As for `Nc1cccc2c1C(=O)C=CC2=O`, the T/C reads like this: (dose: 0.78 mg/kg/injection, schedule: Q01DX009 (ip), vehicle: saline) 103 % of control; (dose: 1.56 mg/kg/injection, schedule: Q01DX009 (ip), vehicle: saline) 101 % of control; (dose: 1.56 mg/kg/injection, schedule: Q04DX003 (ip), vehicle: saline) 95 % of control; (dose: 3.12 mg/kg/injection, schedule: Q01DX009 (ip), vehicle: saline) 98 % of control; (dose: 3.12 mg/kg/injection, schedule: Q04DX003 (ip), vehicle: saline) 103 % of control; (dose: 4.6 mg/kg/injection, schedule: Q01DX009 (ip), vehicle: saline) 104 % of control.
With `O=C(O)c1cc(S(=O)(=O)F)cc(S(=O)(=O)F)c1`, the T/C under setting [1] is 86 % of control.
With `O=C(O)C(O)c1cccc(Cl)c1` (stereo unspecified), the T/C reads like this: (dose: 75.0 mg/kg/injection, schedule: Q01DX001 (ip), vehicle: acetone) 94 % of control; (dose: 150.0 mg/kg/injection, schedule: Q01DX001 (ip), vehicle: acetone) 94 % of control.
As to `O=C(C(=Nc1ccccc1)c1ccccc1)c1ccccc1`, the T/C under setting [2] is 96 % of control and the T/C under setting [3] is 94 % of control.
Turning to `CC(=O)NC(O)C(Cl)(Cl)Cl` (stereo unspecified), the T/C runs as follows: (dose: 100.0 mg/kg/injection, schedule: Q01DX009 (ip), vehicle: saline sonified) 102 % of control; under setting [2], 100 % of control; (dose: 200.0 mg/kg/injection, schedule: Q01DX009 (ip), vehicle: saline sonified) 95 % of control; under setting [3], 96 % of control; (dose: 400.0 mg/kg/injection, schedule: Q01DX009 (ip), vehicle: saline sonified) 93 % of control; (dose: 400.0 mg/kg/injection, schedule: Q04DX003 (ip), vehicle: saline with Tween-80) 110 % of control.
For `Cc1c(CNc2ccc(C(=O)NC(CC(=O)O)CC(=O)O)cc2)ccc2nc(N)nc(N)c12`, the T/C runs as follows: (dose: 0.11 mg/kg/injection, schedule: Q01DX009 (ip), vehicle: saline) 97 % of control; (dose: 0.15 mg/kg/injection, schedule: Q01DX009 (ip), vehicle: saline) 107 % of control; (dose: 0.17 mg/kg/injection, schedule: Q01DX009 (ip), vehicle: saline) 178 % of control; (dose: 0.27 mg/kg/injection, schedule: Q01DX009 (ip), vehicle: saline) 161 % of control; (dose: 0.62 mg/kg/injection, schedule: Q01DX009 (ip), vehicle: saline) 156 % of control and 187 % of control; (dose: 1.25 mg/kg/injection, schedule: Q01DX009 (ip), vehicle: saline) 112 % of control and 121 % of control. In addition, the T/C by setting is: (dose: 2.5 mg/kg/injection, schedule: Q04DX003 (ip), vehicle: saline) 175 % of control; (dose: 4.4 mg/kg/injection, schedule: Q01DX009 (ip), vehicle: other) 91 % of control; (dose: 10.0 mg/kg/injection, schedule: Q01DX001 (ip), vehicle: other) 173 % of control; (dose: 10.0 mg/kg/injection, schedule: Q01DX001 (ip), vehicle: saline) 168 % of control; (dose: 10.0 mg/kg/injection, schedule: Q04DX003 (ip), vehicle: saline) 102 % of control; (dose: 20.0 mg/kg/injection, schedule: Q01DX001 (ip), vehicle: saline) 151 % of control.
For the molecule `CN(C)CSc1nc2ccccc2s1`, the T/C was 93 % of control (dose: 50.0 mg/kg/injection, schedule: Q01DX009 (ip), vehicle: saline with Tween-80); 89 % of control under setting [1]; 93 % of control (dose: 200.0 mg/kg/injection, schedule: Q01DX009 (ip), vehicle: saline with Tween-80).
Take `CN(C)CCOC(=O)c1cccc(CCl)c1`: the T/C (dose: 45.0 mg/kg/injection, schedule: Q04DX002 (ip), vehicle: saline) was 106 % of control; the T/C (dose: 50.0 mg/kg/injection, schedule: Q04DX002 (ip), vehicle: saline) is 98 % of control; the T/C (dose: 65.0 mg/kg/injection, schedule: Q04DX002 (ip), vehicle: saline) was 97 % of control; the T/C (dose: 100.0 mg/kg/injection, schedule: Q04DX002 (ip), vehicle: saline) was 97 % of control and 102 % of control; the T/C (dose: 150.0 mg/kg/injection, schedule: Q04DX002 (ip), vehicle: saline) was 91 % of control; the T/C (dose: 200.0 mg/kg/injection, schedule: Q04DX002 (ip), vehicle: saline) was 94 % of control and 88 % of control. Further, the T/C (dose: 400.0 mg/kg/injection, schedule: Q04DX002 (ip), vehicle: saline) is 106 % of control.
For `C[CH2][Pb]([CH2]C)([CH2]C)[n]1ccnc1`, the T/C is 95 % of control (dose: 100.0 mg/kg/injection, schedule: Q04DX002 (ip), vehicle: Klucel (hydroxypropylcellulose) (HPC)); 95 % of control (dose: 200.0 mg/kg/injection, schedule: Q04DX002 (ip), vehicle: Klucel (hydroxypropylcellulose) (HPC)); 100 % of control (dose: 400.0 mg/kg/injection, schedule: Q04DX002 (ip), vehicle: Klucel (hydroxypropylcellulose) (HPC)).
Regarding `C=CCN(CC=C)CCN1CCN(CCCN2c3ccccc3Sc3ccc(C(F)(F)F)cc32)CC1`, the T/C is 98 % of control under setting [4]; 109 % of control (dose: 6.25 mg/kg/injection, schedule: Q04DX003 (ip), vehicle: saline); 100 % of control under setting [5]; 91 % of control (dose: 12.5 mg/kg/injection, schedule: Q04DX003 (ip), vehicle: saline); 94 % of control under setting [6]; 112 % of control (dose: 25.0 mg/kg/injection, schedule: Q04DX003 (ip), vehicle: saline). The T/C runs as follows: (dose: 50.0 mg/kg/injection, schedule: Q04DX003 (ip), vehicle: saline) 97 % of control; (dose: 56.25 mg/kg/injection, schedule: Q01DX001 (ip), vehicle: saline) 102 % of control; (dose: 100.0 mg/kg/injection, schedule: Q04DX003 (ip), vehicle: saline) 119 % of control; (dose: 112.5 mg/kg/injection, schedule: Q01DX001 (ip), vehicle: saline) 114 % of control.
For the molecule `c1cc2c3c(cccc3c1)-c1nc3ccccc3nc1-2`, the T/C by setting is: (dose: 50.0 mg/kg/injection, schedule: Q01DX Z (ip), vehicle: methylcellulose (MC)) 100 % of control; under setting [7], 94 % of control; (dose: 100.0 mg/kg/injection, schedule: Q01DX Z (ip), vehicle: methylcellulose (MC)) 98 % of control; (dose: 125.0 mg/kg/injection, schedule: Q01DX Z (ip), vehicle: methylcellulose (MC)) 102 % of control; under setting [8], 100 % of control; under setting [9], 88 % of control.
Consider `O=C(NCCCN1CCN(CCCNC(=O)c2cccnc2)CC1)c1cccnc1`, for which the T/C by setting is: under setting [4], 92 % of control; under setting [5], 93 % of control; under setting [6], 97 % of control; (dose: 50.0 mg/kg/injection, schedule: Q01DX009 (ip), vehicle: saline) 101 % of control; (dose: 100.0 mg/kg/injection, schedule: Q01DX009 (ip), vehicle: saline) 109 % of control; (dose: 150.0 mg/kg/injection, schedule: Q01DX009 (ip), vehicle: saline) 100 % of control. Under “dose: 225.0 mg/kg/injection, schedule: Q01DX009 (ip), vehicle: saline”, the T/C is 109 % of control.
Take `O=C(O)C1Nc2ccccc2NC1=O` (stereo unspecified): the T/C is 100 % of control (dose: 100.0 mg/kg/injection, schedule: Q01DX001 (ip), vehicle: Klucel (hydroxypropylcellulose) (HPC)); 94 % of control (dose: 200.0 mg/kg/injection, schedule: Q01DX001 (ip), vehicle: Klucel (hydroxypropylcellulose) (HPC)); 106 % of control (dose: 400.0 mg/kg/injection, schedule: Q01DX001 (ip), vehicle: Klucel (hydroxypropylcellulose) (HPC)).
As to `CCOC(=O)c1c(C)c2c(n1C)CCC(C#N)C2=O` (stereo unspecified), the T/C by setting is: under setting [7], 103 % of control; under setting [8], 97 % of control; under setting [9], 98 % of control.
As to `O=C(Nc1ccc(Br)cc1)Oc1ccccc1C(=O)Nc1ccccc1`, the T/C reads like this: (dose: 100.0 mg/kg/injection, schedule: Q01DX009 (ip), vehicle: Klucel (hydroxypropylcellulose) (HPC)) 98 % of control; (dose: 200.0 mg/kg/injection, schedule: Q01DX009 (ip), vehicle: Klucel (hydroxypropylcellulose) (HPC)) 98 % of control; (dose: 400.0 mg/kg/injection, schedule: Q01DX009 (ip), vehicle: Klucel (hydroxypropylcellulose) (HPC)) 88 % of control.
For the molecule `COc1ccccc1NC(=S)NCc1ccco1`, the T/C (dose: 100.0 mg/kg/injection, schedule: Q04DX002 (ip), vehicle: saline with Tween-80) was 89 % of control and the T/C (dose: 200.0 mg/kg/injection, schedule: Q04DX002 (ip), vehicle: saline with Tween-80) is 89 % of control.
